Several values for one entry are separate records, joined by “and”; a condition that tells them apart may be missing. Equal entries are not always repeated.
Experiments:
[1] = molecular target: Glycogen synthase kinase-3 beta (Homo sapiens, UniProt P49841); assay: TR-FRET Assay
Outline: (§1)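 Kinase activity, measured after a 30-minute compound preincubation, was stopped with EDTA and quantified by TR-FRET using a Tb-labelled pSer641 antibody paired with streptavidin-d2.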

[2] = molecular target: Glycogen synthase kinase-3 alpha (Homo sapiens, UniProt P49840); assay: TR-FRET Assay
Outline: as §1

Chain of Glycogen synthase kinase-3 beta (P49841 whole entry): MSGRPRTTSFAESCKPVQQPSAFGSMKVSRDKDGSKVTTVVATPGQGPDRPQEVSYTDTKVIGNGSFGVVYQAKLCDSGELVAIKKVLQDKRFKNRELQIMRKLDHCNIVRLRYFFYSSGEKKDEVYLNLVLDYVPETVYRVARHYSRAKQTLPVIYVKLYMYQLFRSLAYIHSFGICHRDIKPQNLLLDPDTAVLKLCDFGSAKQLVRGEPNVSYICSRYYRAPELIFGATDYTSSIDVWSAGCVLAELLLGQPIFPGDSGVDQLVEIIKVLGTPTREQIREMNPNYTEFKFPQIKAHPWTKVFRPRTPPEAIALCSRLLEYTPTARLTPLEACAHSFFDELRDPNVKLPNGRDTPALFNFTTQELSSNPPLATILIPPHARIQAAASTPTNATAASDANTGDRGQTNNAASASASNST
Chain of Glycogen synthase kinase-3 alpha (P49840 whole entry): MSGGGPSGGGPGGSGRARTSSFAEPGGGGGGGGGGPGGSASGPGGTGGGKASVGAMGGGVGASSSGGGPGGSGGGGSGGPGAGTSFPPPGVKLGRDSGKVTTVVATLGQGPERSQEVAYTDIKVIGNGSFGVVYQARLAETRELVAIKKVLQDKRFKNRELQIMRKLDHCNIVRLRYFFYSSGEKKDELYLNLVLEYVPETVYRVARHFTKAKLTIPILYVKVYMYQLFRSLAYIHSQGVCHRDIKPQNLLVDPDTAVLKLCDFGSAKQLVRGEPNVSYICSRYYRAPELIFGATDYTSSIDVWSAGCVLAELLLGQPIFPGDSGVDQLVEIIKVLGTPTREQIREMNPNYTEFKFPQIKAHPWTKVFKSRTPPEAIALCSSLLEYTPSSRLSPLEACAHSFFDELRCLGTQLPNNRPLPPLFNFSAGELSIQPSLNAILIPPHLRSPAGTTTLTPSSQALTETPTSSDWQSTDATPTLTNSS

Compound | IC50 [1] | IC50 [2]
CC[C@@]1(c2cccc(S(C)(=O)=O)c2)C2=C(CC(C)(C)NC2=O)NC2N=NC(C)=C21 (some centres not stated) [US20250313563, Compound 947815] | > 5000 nM | 1000 to 5000 nM
CC[C@]1(c2cccc(-c3ccnc(CCO)c3)c2)C2=CN=NC2NC2=C1C(=O)CC(C)(C)C2 (some centres not stated) [US20250313563, Compound 947816] | > 5000 nM | 1000 to 5000 nM
CC[C@@]1(c2cccc(-c3cnn4c3CCCC4)c2)C2=C(CC(C)(C)NC2=O)NC2N=NC(C)=C21 (some centres not stated) [US20250313563, Compound 947817] | < 100 nM | < 100 nM
CC[C@@]1(c2cccc(-c3cnn(C)c3C)c2)C2=C(CC(C)(C)NC2=O)NC2N=NC(C(F)(F)F)=C21 (some centres not stated) [US20250313563, Compound 947819] | < 100 nM | < 100 nM
CC[C@@]1(c2cccc(-c3cncn3C)c2)C2=CN=NC2NC2=C1C(=O)NC(C)(C)C2 (some centres not stated) [US20250313563, Compound 947820] | 100 to 1000 nM | 100 to 1000 nM
CC[C@@]1(c2cccc(-c3ccncc3F)c2)C2=C(CC(C)(C)NC2=O)NC2N=NC(C)=C21 (some centres not stated) [US20250313563, Compound 947821] | < 100 nM | < 100 nM
CC[C@@]1(c2cccc(-c3cc(C)ncc3F)c2)C2=CN=NC2NC2=C1C(=O)NC(C)(C)C2 (some centres not stated) [US20250313563, Compound 947822] | > 5000 nM | 100 to 1000 nM
CC[C@@]1(c2cccc(S(=O)(=O)C(C)C)c2)C2=CN=NC2NC2=C1C(=O)NC(C)(C)C2 (some centres not stated) [US20250313563, Compound 947823] | 1000 to 5000 nM | 100 to 1000 nM
CC[C@]1(c2cccc(-c3cnnn3C)c2)C2=CN=NC2NC2=C1C(=O)CC(C)(C)C2 (some centres not stated) [US20250313563, Compound 947824] | 1000 to 5000 nM | 100 to 1000 nM
CC[C@]1(c2cccc(N(C)c3ncccn3)c2)C2=CN=NC2NC2=C1C(=O)NC(C)(C)C2 (some centres not stated) [US20250313563, Compound 947825] | > 5000 nM | 100 to 1000 nM
CC[C@@]1(c2cccc(N(C)c3ncccn3)c2)C2=CN=NC2NC2=C1C(=O)NC(C)(C)C2 (some centres not stated) [US20250313563, Compound 947826] | < 100 nM | < 100 nM
CC1(C)CC2=C(C(=O)N1)C1(CCN(S(=O)(=O)c3cnn(C(C)(C)C)c3)CC1)C1=C(N=NC1)N2 [US20250313563, Compound 947835] | 100 to 1000 nM | < 100 nM
CCn1ccc(S(=O)(=O)N2CCC3(CC2)C2=CN=NC2NC2=C3C(=O)NC(C)(C)C2)n1 (configuration not stated) [US20250313563, Compound 947836] | 100 to 1000 nM | < 100 nM
CCc1ncc(S(=O)(=O)N2CCC3(CC2)C2=CN=NC2NC2=C3C(=O)NC(C)(C)C2)s1 (configuration not stated) [US20250313563, Compound 947837] | < 100 nM | < 100 nM
CC1(C)CC(=O)C2=C(C1)NC1=C(CN=N1)[C@]21COC2(CN(C(=O)C(C)(F)F)C2)C1 [US20250313563, Compound 947838] | < 100 nM | < 100 nM
CC1(C)CC(=O)C2=C(C1)NC1=C(CN=N1)[C@@]21COC2(CN(C(=O)C(C)(F)F)C2)C1 [US20250313563, Compound 947839] | 100 to 1000 nM | < 100 nM
CCC1(c2cccc(-c3ccnc(C)c3)c2)C2=C(CC(C)(C)NC2=O)NC2N=NC(C(F)(F)F)=C21 (configuration not stated) [US20250313563, Compound 947858] | < 100 nM | < 100 nM
CCC1(c2cccc(S(=O)(=O)C3CC3)c2)C2=C(CC(C)(C)NC2=O)NC2=C1C(C(F)(F)F)N=N2 (configuration not stated) [US20250313563, Compound 947859] | < 100 nM | < 100 nM
CCC1(c2cccc(N3CCCC3)c2)C2=C(CC(C)(C)NC2=O)NC2N=NC(C(F)(F)F)=C21 (configuration not stated) [US20250313563, Compound 947860] | < 100 nM and 100 to 1000 nM | < 100 nM
CCC1(c2cccc(N3CCCCC3)c2)C2=C(CC(C)(C)NC2=O)NC2N=NC(C(F)(F)F)=C21 (configuration not stated) [US20250313563, Compound 947861] | < 100 nM and 100 to 1000 nM | < 100 nM
CCC1(c2cccc(-c3ccnc4c3CCC4)c2)C2=C(CC(C)(C)NC2=O)NC2N=NC(C(F)(F)F)=C21 (configuration not stated) [US20250313563, Compound 947862] | < 100 nM and 100 to 1000 nM | < 100 nM
CCC1(c2cccc(N3CCOCC3)c2)C2=C(CC(C)(C)NC2=O)NC2N=NC(C(F)(F)F)=C21 (configuration not stated) [US20250313563, Compound 947863] | < 100 nM | < 100 nM
CCC1(c2cccc(C(F)F)c2)C2=CN=NC2NC2=C1C(=O)NC(C)(C)C2 (configuration not stated) [US20250313563, Compound 947864] | 100 to 1000 nM | < 100 nM
CCC1(c2cccc(C(F)F)c2)C2=C(CC(C)(C)NC2=O)NC2N=NC(C)=C21 (configuration not stated) [US20250313563, Compound 947865] | < 100 nM | < 100 nM
CCC1(c2cccc(-c3ccncc3F)c2)C2=C(CC(C)(C)NC2=O)NC2N=NC(C(F)(F)F)=C21 (configuration not stated) [US20250313563, Compound 947866] | < 100 nM | < 100 nM
CC[C@]1(c2ccc(OC(C)C)cc2)C2=C(CC(C)(C)CC2=O)NC2N=NC(C(F)(F)F)=C21 (some centres not stated) [US20250313563, Compound 947868] | < 100 nM | < 100 nM

Compound | IC50 [1] | IC50 [2]
CC[C@@]1(c2cccc(-c3ccncc3F)c2)C2=CN=NC2NC2=C1C(=O)NC(C)(C)C2 (some centres not stated) [US20250313563, Compound 947869] | < 100 nM and 1000 to 5000 nM | < 100 nM
CC[C@]1(c2cccc(-c3cnn(C)c3)c2)C2=C(CC(C)(C)NC2=O)NC2N=NC(C(F)(F)F)=C21 (some centres not stated) [US20250313563, Compound 947871] | 100 to 1000 nM | < 100 nM
CC[C@@]1(c2cccc(OC(C)C)c2)C2=C(CC(C)(C)CC2=O)NC2N=NC(C(F)(F)F)=C21 (some centres not stated) [US20250313563, Compound 947872] | 1000 to 5000 nM | 100 to 1000 nM
CC[C@@]1(c2ccc(OC(C)C)cc2)C2=C(CC(C)(C)CC2=O)NC2N=NC(C(F)(F)F)=C21 (some centres not stated) [US20250313563, Compound 947873] | 100 to 1000 nM | 100 to 1000 nM
CC[C@]1(c2cccc(-c3ccncc3F)c2)C2=CN=NC2NC2=C1C(=O)NC(C)(C)C2 (some centres not stated) [US20250313563, Compound 947874] | 1000 to 5000 nM | 100 to 1000 nM
CC[C@@]1(c2cccc(-c3cnn(C)c3)c2)C2=C(CC(C)(C)NC2=O)NC2N=NC(C(F)(F)F)=C21 (some centres not stated) [US20250313563, Compound 947877] | < 100 nM and 100 to 1000 nM | < 100 nM
Cc1csc(S(=O)(=O)N2CCC3(CC2)C2=C(N=NC2)NC2=C3C(=O)CC(C)(C)C2)n1 [US20250313563, Compound 947897] | < 100 nM | < 100 nM
Cn1cc(S(=O)(=O)N2CCC3(CC2)C2=C(N=NC2)NC2=C3C(=O)CC(C)(C)C2)nn1 [US20250313563, Compound 947898] | 100 to 1000 nM | < 100 nM
Cc1ncc(S(=O)(=O)N2CCC3(CC2)C2=C(N=NC2)NC2=C3C(=O)CC(C)(C)C2)s1 [US20250313563, Compound 947899] | < 100 nM | < 100 nM
CC1(C)CC(=O)C2=C(C1)NC1=C(CN=N1)C21CCN(S(=O)(=O)c2ccc3c(c2)OCCO3)CC1 [US20250313563, Compound 947900] | < 100 nM | < 100 nM
CC1(C)CC(=O)C2=C(C1)NC1=C(CN=N1)C21CCN(S(=O)(=O)c2cccc3ccncc23)CC1 [US20250313563, Compound 947901] | < 100 nM | < 100 nM
CC1(C)CC(=O)C2=C(C1)NC1=C(CN=N1)C21CCN(S(=O)(=O)c2ccc(C(F)(F)F)cn2)CC1 [US20250313563, Compound 947902] | < 100 nM | < 100 nM
CC1(C)CC(=O)C2=C(C1)NC1=C(CN=N1)C21CCN(S(=O)(=O)c2cnn(CCF)c2)CC1 [US20250313563, Compound 947903] | < 100 nM | < 100 nM
CC1(C)CC(=O)C2=C(C1)NC1=C(CN=N1)C21CCN(S(=O)(=O)c2cnn(-c3ccccc3)c2)CC1 [US20250313563, Compound 947904] | < 100 nM | < 100 nM
CC[C@]1(c2cccc(-c3ccnn3C)c2)C2=CN=NC2NC2=C1C(=O)N[C@](C)(COC)C2 (some centres not stated) [US20250313563, Compound 947908] | > 5000 nM | 1000 to 5000 nM
CC[C@@]1(c2cccc(-c3ccncc3C)c2)C2=CN=NC2NC2=C1C(=O)N[C@@]1(CCCOC1)C2 (some centres not stated) [US20250313563, Compound 947909] | 1000 to 5000 nM | 100 to 1000 nM
CC[C@@]1(c2cccc(-c3ccncc3C)c2)C2=CN=NC2NC2=C1C(=O)N[C@]1(CCCOC1)C2 (some centres not stated) [US20250313563, Compound 947910] | < 100 nM | < 100 nM
CC[C@]1(c2cccc(-c3ccncc3C)c2)C2=CN=NC2NC2=C1C(=O)N[C@]1(CCCOC1)C2 (some centres not stated) [US20250313563, Compound 947911] | < 100 nM | < 100 nM
CC[C@]1(c2cccc(-c3ccncc3C)c2)C2=CN=NC2NC2=C1C(=O)N[C@@]1(CCCOC1)C2 (some centres not stated) [US20250313563, Compound 947912] | 1000 to 5000 nM | 100 to 1000 nM
CC[C@@]1(c2cccc(-c3ccnn3C)c2)C2=CN=NC2NC2=C1C(=O)N[C@@]1(CCOC1)C2 (some centres not stated) [US20250313563, Compound 948015] | < 100 nM | < 100 nM
CC[C@]1(c2cccc(-c3ccnn3C)c2)C2=CN=NC2NC2=C1C(=O)N[C@@]1(CCOC1)C2 (some centres not stated) [US20250313563, Compound 948017] | < 100 nM | < 100 nM
CC[C@@]1(c2cccc(-c3ccnn3C)c2)C2=CN=NC2NC2=C1C(=O)NC1(CCCC1)C2 (some centres not stated) [US20250313563, Compound 948018] | < 100 nM | < 100 nM
CC[C@]1(c2cccc(-c3ccnn3C)c2)C2=CN=NC2NC2=C1C(=O)NC1(CCCC1)C2 (some centres not stated) [US20250313563, Compound 948019] | > 5000 nM | 1000 to 5000 nM
CC[C@]1(c2cccc(-c3ccncc3Cl)c2)C2=CN=NC2NC2=C1C(=O)NC(C)(C)C2 (some centres not stated) [US20250313563, Compound 948020] | 100 to 1000 nM | 100 to 1000 nM
CC[C@@]1(c2cccc(-c3ccncc3C)c2)C2=CN=NC2NC2=C1C(=O)NC1(CCCC1)C2 (some centres not stated) [US20250313563, Compound 948022] | < 100 nM and 100 to 1000 nM | < 100 nM

From BindingDB's records for patent US20250313563 (The Broad Institute, 2025)
